The values that follow come from US10087219B2, “Human alpha-defensin 5 variant and uses thereof” (priority 2016, dated 2018).

The subject of one data set is S. aureus ATCC 25923. Description: Antibacterial activity (LD90, optical density growth kinetics) against S. aureus ATCC 25923. In kind it is cell-based, Staphylococcus aureus. The following applies: concentration required for killing 90% bacteria, 2 h incubation at 37° C. Here is the method:
(§1) According to measurement of antibacterial activity of antibacterial peptides, the antibacterial potencies of the variants HD-5Myr, HD-Lau and MyrHD-5 of HD-5 as synthesized in Example 2 as well as natural HD-5 were compared.
(§2) The experiments were carried out according to the method for detecting antibacterial activity of antibacterial peptide as reported by Ericksen et al in 2005 (Ericksen B, et al., Antibacterial activity and specificity of the six human {alpha}-defensins. Antimicrob Agents Chemother, 2005).
(§3) Bacteria were inoculated on LB agar plate, and placed in 37° C. constant temperature incubator until bacterial colonies grew. […] Optical density at 600 nm was measured with ELIASA, 1 OD600=4×10^8 CFU/ml, and the bacteria to be tested were diluted with sterile water to 2×10^6 CFU/ml.
(§4) To a sterile 96-plate, 50 μl of sterile water was added to each well, and then A1 well was added with an antibacterial peptide HD-5 sample diluted to a certain concentration. […] Optical density values at 600 nm were measured every 5 minutes in ELIASA at constant temperature of 37° C.
(§5) The measured optical density value minus the optical density value at time 0, and logarithm thereof was taken. […] According to this linear rule, bactericidal rates for different groups were calculated. […]

In a further data set the test system is MRSA-1. Description: Antibacterial activity (LD90, optical density growth kinetics) against MRSA-1. The following applies: for LD90: MRSA-1 isolated in clinic, concentration required for killing 90% bacteria, 2 h incubation at 37° C. It is filed as cell-based, methicillin-resistant Staphylococcus aureus. Here is the method:
as §1, §2
Bacteria were inoculated on LB agar plate, and placed in 37° C. constant temperature incubator until bacterial colonies grew. Single colony was picked out, inoculated in 5 ml of LB culture media, and shake cultured at constant temperature of 37° C. for 4-6 h. It was then washed with sterile water twice. Optical density at 600 nm was measured with ELIASA, 1 OD600=4×10^8 CFU/ml, and the bacteria to be tested were diluted with sterile water to 2×10^6 CFU/ml.
To a sterile 96-plate, 50 μl of sterile water was added to each well, and then A1 well was added with an antibacterial peptide HD-5 sample diluted to a certain concentration. After being mixed evenly, 50 μl was taken therefrom and added to A2 well, thereby being diluted in multiple proportion manner in order, and 50 μl was sucked out from A6 well and discarded. By using the same method, MyrHD-5, HD-5Myr and HD-5Lau samples were diluted. The control well was 50 μl sterile water. Then, to each well, 50 μl of 2×10^6 CFU/ml bacteria was added, and shake cultured at constant temperature of 37° C. for 2 h. Then, 100 μl of LB culture media with double concentration was added separately. Optical density values at 600 nm were measured every 5 minutes in ELIASA at constant temperature of 37° C.
as §5

The nature of data set [1]: Micellar structure formation by transmission electron microscopy. It is filed as physicochemical. The following applies: uranyl acetate staining, FIG. 1. An excerpt:
Small amounts of HD-5, HD-5Myr and HD-5Lau samples were taken and dropped on copper grid used for electron microscope, excessive samples were sucked out with filter paper, after being dried at room temperature, uranyl acetate was used for staining.

Another data set relates to THP-1 cells. Description: Release of IL-1β mature body from LPS-stimulated THP-1 macrophages (immunoblotting). It is filed as cell-based. To be noted: LPS 100 ng/ml 3 h, FIG. 4. As for the experimental part: THP-1 cells were cultured with RPMI-1640 culture media added with 10% fetal calf serum, and then inoculated on 24-well plate during logarithmic phase, 10^6 cells per well, added with PMA with final concentration of 100 nM for stimulating for 12 h so that cell adhered wall.
Media was exchanged with […] added with 10% fetal calf serum, and stood for 24 hours.
The following groups were set: blank group, LPS stimulation group, LPS+5 mM ATP group (positive control group), LPS+HD-5 group, LPS+HD-5Myr group, LPS+HD-5Lau group. 100 ng/ml lipopolysaccharide (LPS) was used or not to perform stimulation for 3 h, then gently washed twice with 1640 culture media, and then added or not with HD-5Myr or HD-5Lau with final concentration of 10 μg/ml and 20 μg/ml, or ATP with final concentration of 5 mM, or HD-5 with final concentration of 100 μg/ml and 200 μg/ml; and supernatant of each group was collected.
The proteins in supernatant in same volume were concentrated, lysed with protein lysis solution, and then release conditions of IL-1β mature body for different groups were compared by immunoblotting method.
(In western blotting, separated proteins are transferred to a membrane and probed.)

The test system of another data set is E. coli ATCC 25922. Description: Antibacterial activity (LD90, optical density growth kinetics) against E. coli ATCC 25922. It is filed as cell-based, Escherichia coli. The following applies: concentration required for killing 90% bacteria, 2 h incubation at 37° C. Here is the method:
as §1, §2, §3, §4, §5

The next data set relates to human red cells. Nature of the data set: Hemolysis of human red cells. It is filed as cell-based. To be noted: 25 μg/ml; 4% human red cells, 37° C., 1 h; 10% Triton X-100 = 100% hemolysis; FIG. 3. Here is the method:
The hemolysis effects of antibacterial peptide HD-5 as well as its variants HD-5Myr and HD-5Lau on human red cell were measured.
Fresh human blood sample was collected, heparinized then centrifuged to take red cell layer;
washed with PBS for 3 times;
to EP tube, HD-5 and its variants with final concentrations of 50 μg/ml and 25 μg/ml were added separately; the positive control was added with 10% Triton X-100 in same volume, while the negative control was added with PBS in same volume.
4% human red cells were added separately, incubated at 37° C. for 1 h;
centrifuged, supernatant in same volume was taken and placed in 96-well plate, OD value at 540 nm was measured; by using the positive control as 100% hemolysis, and using the negative control as 0% hemolysis, the hemolysis rate for each well was calculated: Red cell hemolysis rate %=Test well OD value−negative control well OD valuePositive control well OD value−negative control OD×100%

Positions of bridges follow the written chain, without caps; N, C: chain ends. Residues, ends and D or L forms follow the SMILES beside them. No end group written: not given here. *: point of attachment. Myristoyl = CCCCCCCCCCCCCC(=O)*; Lauroyl = CCCCCCCCCCCC(=O)* A value given as a limit tells only on which side of the number the result lay.

As for “Human defensin-5 (ATCYCRTGRCATRESLSGVCEISGRLYRLCCR; disulfide 10-30, 5-20, 3-31; listed as Homo sapiens) [HD-5, the modification template]”, the LD90 was more than 12.5 µg/mL in the data set with S. aureus ATCC 25923, 5.850 µg/mL with MRSA-1 and 6.691 µg/mL in the data set on E. coli ATCC 25922. In the data set with MRSA-1 (MRSA versus S. aureus ATCC 25923), the “LD90 against methicillin-resistant Staphylococcus aureus compared with LD90 against Staphylococcus aureus ATCC 25923” value is reported as “far lower”. Also, the “Formation of micellar structure” value in data set [1] was “micellar structure was not observed”. The “Release of IL-1β mature body” value in the data set with THP-1 cells (then peptide at 100 μg/ml and 200 μg/ml) is reported as “could promote the release of IL-1β mature body”.

For the compound `Nc1ncnc2c1ncn2[C@@H]1O[C@H](COP(=O)(O)OP(=O)(O)OP(=O)(O)O)[C@@H](O)[C@H]1O` [ATP], in the data set with THP-1 cells (then 5 mM ATP (positive control)), the “Release of IL-1β mature body” value is recorded as “exhibited release of IL-1β mature body”.

As to “MyrHD-5: 33-residue N-terminally modified HD-5 variant (SEQ ID NO: 3), Gly1 amino group linked to a myristoyl (Myristoyl-GATCYCRTGRCATRESLSGVCEISGRLYRLCCR; disulfide 11-31, 6-21, 4-32)”, the LD90 is 6.280 µg/mL in the data set with S. aureus ATCC 25923, 1.400 µg/mL in the data set with MRSA-1 and more than 12.5 µg/mL in the data set on E. coli ATCC 25922.

In turn, `CCCCCCCCCCCC(=O)NCCCC[C@H](NC(=O)CNC(=O)[C@H](CCCNC(=N)N)NC(=O)[C@@H]1CSSC[C@H](NC(=O)[C@@H](NC(=O)[C@H](C)N)[C@@H](C)O)C(=O)N[C@@H](Cc2ccc(O)cc2)C(=O)N[C@H]2CSSC[C@@H]3NC(=O)[C@H](C(C)C)NC(=O)CNC(=O)[C@H](CO)NC(=O)[C@H](CC(C)C)NC(=O)[C@H](CO)NC(=O)[C@H](CCC(=O)O)NC(=O)[C@H](CCCNC(=N)N)NC(=O)[C@H]([C@@H](C)O)NC(=O)[C@H](C)NC(=O)[C@H](CSSC[C@H](NC(=O)[C@H](CC(C)C)NC(=O)[C@H](CCCNC(=N)N)NC(=O)[C@H](Cc4ccc(O)cc4)NC(=O)[C@H](CC(C)C)NC(=O)[C@H](CCCNC(=N)N)NC(=O)CNC(=O)[C@H](CO)NC(=O)[C@H]([C@@H](C)CC)NC(=O)[C@H](CCC(=O)O)NC3=O)C(=O)N1)NC(=O)[C@H](CCCNC(=N)N)NC(=O)CNC(=O)[C@H]([C@@H](C)O)NC(=O)[C@H](CCCNC(=N)N)NC2=O)C(N)=O` [HD-5Lau] (H-ATCYCRTGRCATRESLSGVCEISGRLYRLCCRGK(Lauroyl)-NH2; disulfide 3-31, 5-20, 10-30) yielded a hemolysis rate in the data set on human red cells of 2.24%.

Take `CCCCCCCCCCCCCC(=O)NCCCC[C@H](NC(=O)CNC(=O)[C@H](CCCNC(=N)N)NC(=O)[C@@H]1CSSC[C@H](NC(=O)[C@@H](NC(=O)[C@H](C)N)[C@@H](C)O)C(=O)N[C@@H](Cc2ccc(O)cc2)C(=O)N[C@H]2CSSC[C@@H]3NC(=O)[C@H](C(C)C)NC(=O)CNC(=O)[C@H](CO)NC(=O)[C@H](CC(C)C)NC(=O)[C@H](CO)NC(=O)[C@H](CCC(=O)O)NC(=O)[C@H](CCCNC(=N)N)NC(=O)[C@H]([C@@H](C)O)NC(=O)[C@H](C)NC(=O)[C@H](CSSC[C@H](NC(=O)[C@H](CC(C)C)NC(=O)[C@H](CCCNC(=N)N)NC(=O)[C@H](Cc4ccc(O)cc4)NC(=O)[C@H](CC(C)C)NC(=O)[C@H](CCCNC(=N)N)NC(=O)CNC(=O)[C@H](CO)NC(=O)[C@H]([C@@H](C)CC)NC(=O)[C@H](CCC(=O)O)NC3=O)C(=O)N1)NC(=O)[C@H](CCCNC(=N)N)NC(=O)CNC(=O)[C@H]([C@@H](C)O)NC(=O)[C@H](CCCNC(=N)N)NC2=O)C(N)=O` [HD-5Myr] (H-ATCYCRTGRCATRESLSGVCEISGRLYRLCCRGK(Myristoyl)-NH2; disulfide 3-31, 5-20, 10-30): the hemolysis rate in the data set with human red cells is given as 6.83%.
